Data taken from paper PMC12021911, “Comparative evaluation of antimicrobial peptides: effect on formation, metabolic activity and viability of Klebsiella pneumoniae biofilms” (Frontiers in Microbiology, 2025).
In brackets after ≈: the same amount, converted by molar mass. Read-outs that look alike come from different tables or passages of the source.

Legend:
Format in all cases: cell-based, Klebsiella pneumoniae
[1] = system: K. pneumoniae 42KC-108224-1; test: microbe, parasite or virus in culture
Procedure: (§1) Three different strains of K. pneumoniae were investigated in this study which were originally isolated from a human, a pig and a dog (Table 2) and characterized in previous studies ([Krieger et al., 2021]; [Krieger et al., 2022]). Minimum inhibitory concentration (MIC) values were determined according to EUCAST guidelines by microdilution test and are shown in Supplementary Table S1.
(§2) Table S1 Minimum inhibitory concentration (MIC) values of the three K. pneumoniae strains,
(§3) determined according to EUCAST guidelines by microdilution test.
(§4) MIC [µg/mL] of indicated antibiotics

K. pneumoniae 17349 [2] = test: microbe, parasite or virus in culture
Procedure: as §1, §2, §3, §4

K. pneumoniae IMT40061 [3] = test: microbe, parasite or virus in culture
Procedure: as §1, §2, §3, §4

[4] = system: K. pneumoniae 42KC-108224-1; test: fluorescence assay on mature biofilms (SYTO 9 / propidium iodide); conditions: 24 h treatment of mature biofilm; strongest reduction, concentration not given
Procedure: The proportion of living and dead bacteria was determined using the fluorescence assay FilmTracer™ LIVE/DEAD biofilm viability kit (L10316, Life Technologies GmbH, Darmstadt, Germany). A bacterial count of 2 × 10^7 CFU/mL was inoculated in 50% BHI broth, 100 μL were added to a 96-well plate in duplicate and plates were incubated for 22 h at 37°C. Wells containing only BHI broth were used as blank. After incubation, the supernatant was discarded and plates were washed three times with sterile PBS. […] After incubation for 24 h at 37°C and washing three times with sterile PBS, 50 μL filter-sterilized water containing 0.15 μL each of SYTO™ 9 stain and propidium iodide stain was added to each well. Plates were incubated for 20 min at room temperature in the dark. The staining solution was discarded and the plates were washed three times with sterile PBS. The fluorescence intensity of the SYTO™ 9 stain (λex = 470 nm, λem = 500 nm) and the propidium iodide stain (λex = 490 nm, λem = 635 nm) were measured on a BioTek Synergy H1 microplate reader and corrected for the blank values. The percentage of fluorescence intensity was calculated based on the negative control. The SYTO™ 9/propidium iodide ratio was calculated. The experiment was conducted at least three times.

[5] = system: K. pneumoniae 42KC-108224-1; test: crystal violet assay, biofilm formation upon AMP treatment; conditions: for biofilm mass (crystal violet), percentage of the growth control: 16 μg/mL, 22 h, 37°C, 50% BHI, mean, n ≥ 3; for biofilm formation inhibited to: concentration not given
Procedure: (§5) To quantify biofilm formation, the crystal violet assay was done as described previously ([Sager et al., 2015]). Specifically, bacteria were grown in 10 mL BHI broth for 18 h at 37°C on a shaking platform (120 rpm). Subsequently 100 μL of a 1:100 dilution of this overnight culture in BHI was transferred to 96-well plates and incubated for 24 h at 37°C. Wells with BHI broth only were used as blank. Five replicates were investigated per strain. After incubation the suspension was discarded, plates were washed three times with tap water and air-dried. Subsequently, 100 μL of 1% crystal violet (T123.1, Th. Geyer GmbH & Co. KG, Renningen, Germany) in distilled water was added to each well and incubated for 15 min at room temperature before rinsing the plates four times with tap water and air-drying them again. One hundred μL of 99% ethanol were added to each well for 15 min at room temperature to dissolve the remaining crystal violet. Subsequently, the optical density at 540 nm (OD540) was measured using the BioTek Synergy H1 microplate reader to quantify biofilm mass remaining in the wells. OD values of the blank were subtracted from all the samples. Each experiment was conducted three times.
(§6) To determine the effect of the AMPs on biofilm formation of K. pneumoniae, a standardized bacterial suspension and serial dilutions of antimicrobial agents were incubated together as conducted for determination of planktonic growth. After incubation the crystal violet assay was performed as described above. The percentage of biofilm formation was calculated based on the growth control. The experiment was conducted at least three times.

K. pneumoniae 17349 [6] = test: resazurin assay, metabolic activity of biofilm; conditions: 16 μg/mL; 22 h co-incubation, 37°C, 50% BHI; n ≥ 3
Procedure: Biofilm viability was quantified using the resazurin assay as previously described ([Fontoura et al., 2023]) with minor modifications. A standardized bacterial suspension and serial dilutions of antimicrobial agents were incubated together as conducted for determination of planktonic growth and biofilm formation. After incubation, the bacterial suspension was discarded and plates were washed three times with sterile PBS. One hundred microliters of sterile PBS containing 2 μL of resazurin (6.75 mg/mL, in sterile PBS; R7017-1G, Merck KGaA, Darmstadt, Germany) were added per well. After an incubation of 3–5 h at 37°C fluorescence intensity was measured with an excitation wavelength (λex) of 528 nm and an emission wavelength (λem) of 645 nm by BioTek Synergy H1 microplate reader. Measured values of the blank were subtracted from all the samples. The percentage of metabolic activity was calculated based on the growth control. The experiment was conducted at least three times.

[7] = system: all three K. pneumoniae strains; test: crystal violet assay, biofilm formation, statements on all three strains; conditions: all three strains; concentration not given
Procedure: as §5, §6

K. pneumoniae 17349 [8] = test: crystal violet assay, biofilm formation upon AMP treatment; conditions: 22 h, 37°C, 50% BHI, mean, n ≥ 3
Procedure: as §5, §6

K. pneumoniae IMT40061 [9] = test: as above; conditions: 16 μg/mL; 22 h, 37°C, 50% BHI; mean, n ≥ 3
Procedure: as §5, §6

K. pneumoniae 17349 [10] = test: fluorescence assay on mature biofilms (SYTO 9 / propidium iodide); conditions: 24 h treatment of mature biofilm; concentration not given
[11] = Klebsiella pneumoniae, 42KC1082241, EUCAST guidelines, microdilution test, read-out: MIC
[12] = Klebsiella pneumoniae, 17349, EUCAST guidelines, microdilution test, read-out: MIC
[13] = Klebsiella pneumoniae, IMT40061, EUCAST guidelines, microdilution test, read-out: MIC
[14] = Klebsiella pneumoniae, 42KC1082241
[15] = EUCAST guidelines, microdilution test

For CO/N=C(\C(=O)N[C@@H]1C(=O)N2C(C(=O)O)=C(COC(C)=O)CS[C@H]12)c1csc(N)n1 [Cefotaxime], which MIC [1, 11] is on record?
Its MIC is less than 0.0625 mg/L.

What about the MIC (K. pneumoniae 17349 [2]; [12]) of the same molecule?
The MIC was less than 0.0625 mg/L.

What about the MIC (K. pneumoniae IMT40061 [3]; [13]) of the same molecule?
Its MIC is greater than 8 mg/L.

For “VDKPPYLPRPRPPROIYNO-NH2 [Onc72, Insect-derived proline-rich AMP, derivate of Oncopeltus antibacterial peptide 4]”, which “viable biofilm mass (SYTO™ 9)” value [4] is on record?
Its value is 51%.

What about the “biofilm mass (crystal violet), percentage of the growth control” value [5] of the same molecule?
Its value is 36%.

And the “biofilm formation inhibited to” value [5]?
The value was 36%.

Which “metabolic activity of the biofilm (resazurin), percentage of the growth control” value (K. pneumoniae 17349 [6]) does the source give for “LLGDFFRKSKEKIGKEFKRIVQRIKDFLRNLVPRTES-OH [LL-37, Human cathelicidin, purchased from GENAXXON bioscience GmbH]” here?
Its value is 30%.

And the “biofilm mass, % of the untreated control” value [7]?
The value was “less than 40%”.

And the “biofilm mass (crystal violet), percentage of the growth control” value (K. pneumoniae 17349 [8]; 0.5 μg/mL)?
Its value is 140%.

And the “biofilm mass (crystal violet), percentage of the growth control” value (K. pneumoniae 17349 [8]; 16 μg/mL)?
Its value is 13%.

“VRLIVAVRIWRR-NH2 [compound 1018, Synthetic antimicrobial peptide]” was tested. Which “viable biofilm mass (SYTO™ 9)” value [4] did it give?
Its value is “less than 30%”.

What about the “biofilm mass (crystal violet), percentage of the growth control” value [5] of the same molecule?
Its value is 54%.

What about the “biofilm mass (crystal violet), percentage of the growth control” value (K. pneumoniae IMT40061 [9]) of the same molecule?
The value was 61%.

And the “viable biofilm mass (SYTO™ 9)” value (K. pneumoniae 17349 [10])?
The value was “less than 30%”.

Which MIC [1, 11] does the source give for NC[C@H]1O[C@H](O[C@H]2[C@H](O)[C@@H](O[C@H]3O[C@H](CO)[C@@H](O)[C@H](N)[C@H]3O)[C@H](N)C[C@@H]2N)[C@H](N)C[C@@H]1O [Tobramycin] here?
Its MIC is 0.25 mg/L (≈ 0.535 µM).

What about the MIC (K. pneumoniae 17349 [2]; [12]) of the same molecule?
The MIC was less than 0.125 mg/L.

And the MIC (K. pneumoniae IMT40061 [3]; [13])?
The MIC was 4 mg/L (≈ 8.56 µM).

With “VDKPPYLPRPRPPRrIYNr-NH2 [Onc112, Insect-derived proline-rich AMP, derivate of Oncopeltus antibacterial peptide 4]” as the molecule, how does the “viable biofilm mass (SYTO™ 9)” value [4] read?
The value was 55%.

What about the “biofilm mass (crystal violet), percentage of the growth control” value [5] of the same molecule?
The value was 26%.

What about the “biofilm formation inhibited to” value [5] of the same molecule?
The value was 26%.

For C[C@@H](O)[C@H]1C(=O)N2C(C(=O)O)=C(SCCN=CN)C[C@H]12 [Imipenem], which MIC [1, 14] is on record?
Its MIC is less than 0.125 mg/L.

What about the MIC (K. pneumoniae 17349 [2]; Klebsiella pneumoniae, 17349) of the same molecule?
The MIC was less than 0.125 mg/L.

And the MIC (K. pneumoniae IMT40061 [3]; Klebsiella pneumoniae, IMT40061)?
The MIC was less than 0.125 mg/L.

What does the source list for “KRFRIRVRV-NH2 [compound 1037, Synthetic antimicrobial peptide]”?
viable biofilm mass (SYTO™ 9) [4]: 43%; biofilm mass (crystal violet), percentage of the growth control [5]: 53%; biofilm mass (crystal violet), percentage of the growth control (K. pneumoniae IMT40061 [9]): 67%

For NCC[C@H](O)C(=O)N[C@@H]1C[C@H](N)[C@@H](O[C@H]2O[C@H](CN)[C@@H](O)[C@H](O)[C@H]2O)[C@H](O)[C@H]1O[C@H]1O[C@H](CO)[C@@H](O)[C@H](N)[C@H]1O [Amikacin], which MIC [1, 11] is on record?
The MIC was less than 0.5 mg/L.

What about the MIC (K. pneumoniae 17349 [2]; [12]) of the same molecule?
Its MIC is less than 0.5 mg/L.

And the MIC (K. pneumoniae IMT40061 [3]; [13])?
The MIC was 4 mg/L (≈ 6.83 µM).

With Piperacillin/Tazobactam as the molecule, how does the MIC [1, 15] read?
The MIC was 1/4.

And the MIC (K. pneumoniae 17349 [2]; [15])?
The MIC was 1/4.

And the MIC (K. pneumoniae IMT40061 [3]; [15])?
The MIC was > 64/4.

How did the MIC [1, 14] turn out when C[C@H]1COc2c(N3CCN(C)CC3)c(F)cc3c(=O)c(C(=O)O)cn1c23 [Levofloxacin] was run?
The MIC was less than 0.0625 mg/L.

What about the MIC (K. pneumoniae 17349 [2]; Klebsiella pneumoniae, 17349) of the same molecule?
The MIC was less than 0.0625 mg/L.

And the MIC (K. pneumoniae IMT40061 [3]; [13])?
The MIC was greater than 8 mg/L.

How did the MIC [1, 11] turn out when CNC(C)C1CCC(N)C(OC2C(N)CC(N)C(OC3OCC(C)(O)C(NC)C3O)C2O)O1 (centres unmarked) [Gentamicin] was run?
The MIC was less than 0.125 mg/L.

And the MIC (K. pneumoniae 17349 [2]; [12])?
Its MIC is 0.25 mg/L (≈ 0.523 µM).

What about the MIC (K. pneumoniae IMT40061 [3]; [13]) of the same molecule?
Its MIC is 0.5 mg/L (≈ 1.05 µM).
